Test results as given in patent US11834663B2, “Fibrotic treatment” (Monash University, priority 2015, dated 2023).

System: hearts of aged (18-22 month old) WT mice
Test: Reversal of age-induced cardiac fibrosis and inflammation in aged WT mice (histology, immunofluorescence, western blot)
Format: in vivo, mouse
Conditions: aged (~20 month old) WT mice, 4 weeks, FIG. 19
Experimental: There are 8 different sets of in vivo experiments in this study: • A) Phenotypic characterisation of the heart and blood vessels in global IRAP knockout mice and their WT controls treated for 4 weeks with Angiotensin (Ang) II (800 ng/kg/min; s.c.) where mouse hearts and blood vessels were compared to tissue obtained from young WT and IRAP^−/− mice treated with saline. • B) Prevention of Ang II-induced changes in the cardiovascular system following IRAP inhibitor treatment. In the prevention model, WT mice were treated with Ang II (800 ng/kg/min; s.c.)±the IRAP inhibitor (HFI-419; 500 ng/kg/min for 28 days) or HFI-vehicle (1 DMSO:3 HBC). • C) Phenotypic characterisation of the aged heart, kidney and blood vessels in the global IRAP knockout mice where aged WT and IRAP^−/− mouse hearts, kidneys and blood vessels were compared to tissue obtained from young WT and IRAP^−/− mice. • D) Reversal of the age-induced changes in the cardiovascular system following IRAP inhibitor treatment. In the reversal model, aged WT mice were treated with either saline, IRAP inhibitor (HFI-419 at 500 ng/kg/min; compound 1 at 500 ng/kg/min; compound 2 at 50 ng/kg/min) or HFI-vehicle (1 DMSO: 3 HBC) for 4 weeks. • E) Prevention of ischemic-reperfusion injury in isolated hearts taken from aged global IRAP knockout mice and aged IRAP inhibitor (HFI-419 at 500 ng/kg/min; s.c.) treated WT mice compared to age-matched vehicle-treated (1 DMSO:3 HBC; s.c.) WT controls. • F) Phenotypic characterization of cardiac function using echocardiography in the aged global IRAP knockout mice compared to aged and young WT mice. • G) Phenotypic characterization of liver steatosis in IRAP knockout mice in a high fat diet (HFD) model. • H) Reversal of the salt-induced fibrosis in the liver following IRAP inhibitor treatment.
All mice which underwent surgery were anaesthetized with Isoflurane (Isorrane) (5% induction and 2.5% maintenance) and an incision made in the midscapular region through which osmotic minipumps (Alzet model 2004, Alza Corp) were inserted for subcutaneous drug administration. The incision area was sutured with 6/0 DY silk (Dynek Pty Ltd) and antibiotic powder applied (Cicatrin, Pfizer) followed by intramuscular injection of the analgesic Cartrophen (0.1 ml of a 1.5 mg/ml stock solution; Biopharm Australia). Systolic blood pressure (SBP) was measured fortnightly using non-invasive tail-cuff plethysmography apparatus (MC4000 Blood Pressure Analysis System, Hatteras Instrument Inc) before drug treatment (week 0), at week 2 of treatment and end of treatment (week 4). At the end of drug treatment, body weight of mice was recorded. Mice were anaesthetized using Isoflurane inhalation and killed by cervical dislocation. Organs (heart, aorta, kidneys, brain, blood and tibia) were collected, with heart and aorta being dissected appropriately as described below. All organs were then snap frozen in liquid nitrogen, and stored at −80° C. if they were not used for vascular reactivity studies conducted on the day mice were killed.
To measure collagen deposition, frozen sections of heart, kidney or aorta (all 5 μm thickness) were air dried for 10 minutes and were brought through 3 times xylene (2 minutes each), and 3 times absolute alcohol washes before being rinsed in tap H2O for 30 seconds. Staining with an optimal concentration of picrosirius red (in this instance 0.05% picrosirius red diluted in saturated picric acid) was performed and left for an hour. Sections were then rinsed in water and differentiated in 0.01 M HCl for 2 minutes, followed by dehydration via 3 times absolute alcohol washes. Then, slides were brought through 3 times xylene washes before being cover slipped according to standard histological techniques using DPX as the mounting medium. […]

Row | Compound | age-induced collagen expression in the heart (picrosirius red) (compound 2 at 50 ng/kg/min) | age-induced collagen expression in the heart (picrosirius red) (compound 1 at 500 ng/kg/min)
1 | N[C@H]1CCSSC[C@@H](C(=O)NCc2ccccc2CC(=O)O)NC(=O)C[C@H](Cc2ccc(O)cc2)NC1=O [Compound 2] | reverse | –
2 | CC(=O)C1=C(C)OC(N)=C(C#N)C1c1ccc(C(=O)O)cc1.N (centres unmarked) [Compound 1, 4-(3-acetyl-6-amino-5-cyano-2-methyl-4H-pyran-4-yl)benzoic acid] | – | reverse
